We go through six compounds from patent US9193983B2, “Assays for mutagenesis detection” (The Regents of the University of California, priority 2007, dated 2015).

Read-outs that look alike come from different tables or passages of the source. Numbered stars: 1 amine (or outer) side, 2 acyl side, 3 side chain; on linkers, the order of the positions; unused ones are H or OH. Bridge positions count the residues as written; N and C are the ends. Square brackets hold non-standard residues; d marks the D form. Peptide text beside a SMILES is read from it. I, II: the chains in the order shown. Actinocin(9to1) = Cc1c2oc3c(C)ccc(C(=O)[*:1])c3nc-2c(C(=O)[*:2])c(N)c1=O; NMeV = CN[C@H](C(=O)O)C(C)C; Sar = CNCC(=O)O

Data set [1] has as its system S. cerevisiae strain RS112. The experiment in a line: well-based DEL assay (MTS colorimetric, 96/384-well): genotoxicity and cytotoxicity. Conditions: for DNA deletion potential (DEL events) of solvent alone: compared to control treated yeast. An excerpt:
(§1) The RS112 yeast DEL assay tester strain of Saccharomyces cerevisiae contains a plasmid with an internal fragment of the HIS3 gene integrated at the genomic HIS3 locus, yielding an integrative disruption of the HIS3 gene. This disruption results in two copies of the HIS3 gene, each copy having one terminal deletion. Recombination between the two his3 deletion alleles results in reversion to HIS3^+ and growth in the absence of histidine. This recombination event leads to a 6 kb DNA deletion comprising the integrated plasmid leading to deletion (DEL) events. The assay utilizing DEL events involves overnight growth of a single colony of the RS112 strain and subsequent subculture with the presence or absence of the chemical being tested for 17 hours at 30° C. under constant shaking. Yeast are then plated onto SC medium to determine the number of survivors (individual colonies are counted) and onto SC-HIS medium to score for DEL events. The traditional DEL assay is very powerful if one is testing a limited number of chemicals but becomes impractical for screening large numbers of chemicals and chemical libraries.
(§2) For 384-well plate format, 1 μl of yeast (˜100,000 cells) was pipetted into 8 microplate wells for each compound, four of which containing 70 μl SC media and four containing 70 μl SC-HIS media; each well was supplemented with 14 μl of MTS and 5 μl of compound. For 96-well plate format, the above was consistent except media, MTS, and compound volumes were 100 μl, 20 μl, and 7 μl, respectively. Control wells were treated with water in lieu of compound. The outermost columns of the 96-well plate and outer two columns of each 384-well plate were excluded from experimentation lest edge evaporative effects alter the data. Plates were incubated at 30° C. at normal atmosphere during which yeast were grown in the presence of the tested compound and 490 nm absorbance was measured 10-18 hr later using a Molecular Devices SpectraMax M5 microplate reader (Sunnyvale, Calif.).
(§3) Survival for a given compound treatment was quantified by averaging the absorbance across the four treated wells in SC media and dividing that by the average absorbance of control wells. DEL induction was quantified by dividing the absorbance of each SC-HIS well by the corresponding paired SC well. Thus for each compound done in quadruplicate, each plate contains a set of 4 different measurements of DEL induction. For each compound, ratio of the average DEL induction in treated versus control cultures was taken as the fold-increase in DEL events (HIS^+ growth). A Student's t-test was performed on the 4 measurements of DEL induction and the same measurements recorded from control wells to determine significance of the fold-increase. It should be noted that this value of fold-increase is analyzed statistically for significance and not absolute; thus two different chemicals may have the same fold-increase but varying levels of significance. In plots and tables, data from a single experiment performed in quadruplicate is presented; all experiments were repeated independently in at least 3 separate experiments in both 96 and 384-well plate formats.

Assay in data set [2]: as above
Particulars: Saccharomyces cerevisiae; for viability: Cytotoxicity (% survival).
From the text: as §1, §2, §3

Setting [3] is: S. cerevisiae strain RS112 (diploid yeast cells).

Consider `c1ccccc1` [Benzene, benzene], for which, in data set [1] (0.25 mg/ml final in well), the Cytotoxicity significance result is “ns (ns—not significant (p > 0.05))”, the “DEL (fold increase)” value was found to be 1.77 fold and the DEL significance entry is reported as “*** (*** (p < 0.005))”. Further, in data set [1] (0.40 mg/ml final in well), the Cytotoxicity significance result is given as “** (** (p < 0.01))”, the “DEL (fold increase)” value turned out to be 2.31 fold and the DEL significance entry is given as “*** (*** (p < 0.005))”. For the same compound, the DEL induction entry in data set [1] (0.25 and 0.40 mg/ml) is given as “significant DEL induction”. Besides, in data set [2], the viability at 0.25 mg/ml was 96% and the viability at 0.4 mg/ml was 83.7%.
As to `C[S+](C)[O-]` [DMSO, dimethyl sulfoxide], in data set [1] (1% (solvent tested alone)), the “DEL (fold increase)” value worked out at 0.96 fold and the DEL significance entry is given as “ns (ns—not significant (p > 0.05))”. The “DNA deletion potential (DEL events) of solvent alone” value in data set [1] was “neither solvents generated any differentiable response”.
Turning to `CCOS(C)(=O)=O` [EMS, ethyl methanesulfonate], in data set [1] (2 μg/ml final in well), the Cytotoxicity significance entry was “*** (*** (p < 0.005))”, the “DEL (fold increase)” value was 1.59 fold and the DEL significance result is given as “*** (*** (p < 0.005))”. Also, in data set [1] (5 μg/ml final in well), the Cytotoxicity significance entry was “*** (*** (p < 0.005))”, the “DEL (fold increase)” value is 3.19 fold and the DEL significance entry is listed as “*** (*** (p < 0.005))”. In data set [1] (10 μg/ml final in well), the Cytotoxicity significance result is recorded as “*** (*** (p < 0.005))”, the “DEL (fold increase)” value came out at 2.65 fold and the DEL significance result was “*** (*** (p < 0.005))”. In data set [1] (2, 5 and 10 μg/ml), the “growth in +13 media (cytotoxicity)” value is listed as “diminished growth in +13 media” and the “growth in −HIS media (genotoxicity)” value is given as “increased growth in −HIS media”. Also, in data set [2] (setting [3]), the viability at 2 μg/ml was 38.2%, the viability at 5 μg/ml stood at 8.36% and the viability at 10 μg/ml is 6.7%.
As for `CC(C)=O` [Acetone, acetone], in data set [1] (0.4% (solvent tested alone)), the “DEL (fold increase)” value stood at 0.96 fold and the DEL significance entry was “ns (ns—not significant (p > 0.05))”. Further, the “DNA deletion potential (DEL events) of solvent alone” value in data set [1] is reported as “neither solvents generated any differentiable response”.
For `Cc1c2oc3c(C)ccc(C(=O)N[C@@H]4C(=O)N[C@H](C(C)C)C(=O)N5CCC[C@H]5C(=O)N(C)CC(=O)N(C)[C@@H](C(C)C)C(=O)O[C@@H]4C)c3nc-2c(C(=O)N[C@@H]2C(=O)N[C@H](C(C)C)C(=O)N3CCC[C@H]3C(=O)N(C)CC(=O)N(C)[C@@H](C(C)C)C(=O)O[C@@H]2C)c(N)c1=O` [ActD, actinomycin D] (I: T[dV]P[Sar][NMeV] / II: T[dV]P[Sar][NMeV]; ester I:1-I:C, II:1-II:C; linker I:N-II:N via Actinocin(9to1)), in data set [1], the Cytotoxicity significance result was “** (key: * (p < 0.05); ** (p < 0.01); *** (p < 0.005); ns—not significant (p > 0.05))”, the DEL fold-increase entry is given as “significant DEL fold-increase” and the cytotoxicity entry is given as “slight cytotoxicity”. For the same compound, in data set [1] (5 μM final in well), the “Cytotoxicity (% survival)” value is given as 112.0%, the “DEL (fold increase)” value was 0.89 fold and the DEL significance result is “ns (ns—not significant (p > 0.05))”. Moreover, in data set [1] (10 μM final in well), the “Cytotoxicity (% survival)” value came out at 110.2%, the “DEL (fold increase)” value turned out to be 0.96 fold and the DEL significance entry is given as “ns (ns—not significant (p > 0.05))”. For the same compound, in data set [1] (20 μM final in well), the “Cytotoxicity (% survival)” value was 86.3%, the “DEL (fold increase)” value is on record as 1.26 fold and the DEL significance result was “** (** (p < 0.01))”.
`O=[N+]([O-])c1cc[n+]([O-])c2ccccc12` [4NQO, 4-nitroquinoline-1-oxide]: the viability was determined as 20.3% in data set [2] (0.08 μg/ml final in well), 11.7% in data set [2] (0.2 μg/ml final in well) and 13.5% in data set [2] (1 μg/ml final in well).

As usually defined, the viability is a read-out of living cells in per cent, often relative to untreated cells.
